From patent US5707648A, “Transparent liquid for encapsulated drug delivery” (LDS Technologies, Inc., priority 1995, dated 1998)

What was measured:
[1] = system: plasma Factor VIII; assay: Plasma Factor VIII levels following administration of dDAVP (dDAVP Dog Study); assay type: in vivo, Male beagle dogs; details: dogs; capsules with 13, 43 and 125 μg dDAVP, dDAVP in dextrose, or s.c. 0.4 μg/kg
Protocol: Male beagle dogs weighing 9-12 kg were used in all experiments. Prior to each study, all animals were fasted overnight but were allowed access to water ad libitum.
Peroral administration: Enteric coated hard gelatin capsules, size 0el (0.78 ml) from [sequence], fill materials: 0.73 g of the drug delivery compositions containing:
Subcutaneous administration: 4 μg dDAVP/ml composition, 0.4 μg dDAVP/kg animal (Table 6F).
Plasma Factor VIII levels following administration of dDAVP was used as a pharmacodynamic response to the drug. Maximum response to dDAVP was determined by measuring plasma Factor VIII response levels following subcutaneous administration of dDAVP (Table 6F).
For studies involving capsule administration, a single capsule was given to each animal in each study. Blood samples were taken immediately prior to dDAVP administration (t=0), and at various times thereafter. Plasma levels of Factor VIII were determined using commercially available kits.

[2] = compared with AVP or LVP; cited from earlier work
[3] = human, in vivo; cited from earlier work
[4] = system: delta-class of opioid receptor; details: Vaughn et al. 1989; cited from earlier work
[5] = Chemical stability of calcitonin in the formulation; assay type: physicochemical; details: formulation of Table 7.1

**Q.** With `NC(=O)CC[C@@H]1NC(=O)[C@H](Cc2ccccc2)NC(=O)[C@H](Cc2ccc(O)cc2)NC(=O)CCSSC[C@@H](C(=O)N2CCC[C@H]2C(=O)N[C@H](CCCN=C(N)N)C(=O)NCC(N)=O)NC(=O)[C@H](CC(N)=O)NC1=O` [desmopressin] as the compound, how does the “response in plasma Factor VIII levels (in words)” value [1] read?
**A.** The value was “dose-dependent increase in plasma Factor VIII levels”.

**Q.** And the “pressor (vasoconstricting) activities” value [2]?
**A.** Its value is “lacks the pressor (vasoconstricting) activities of AVP or LVP”.

**Q.** And the oral bioavailability [3]?
**A.** The oral bioavailability was 0.1-0.2%.

**Q.** With [D-Pen^2,5, PCl-Phe^4 ]-enkephalin as the compound, how does the “interaction with the delta-class of opioid receptor” value [4] read?
**A.** The value was “interacts selectively with the delta-class of opioid receptor”.

**Q.** For calcitonin, which “chemical stability of calcitonin in the formulation” value [5] is on record?
**A.** Its value is “chemically stable in this formulation for at least two months”.
